Reference: patent US8592435B2, “Nitrogen-containing six-membered aromatic ring derivatives and pharmaceutical products containing the same” (Daiichi Sankyo Company, Limited, priority 2007, dated 2013)

Experiments:
[1] = test system: mixture of human vascular endothelial cells and fibroblasts; test: Test Example 2: ability to promote angiogenesis (angiogenesis test kit KZ-1000); type: cell-based; details: Homo sapiens, 216 h, lumen length, % of control, day 9, read-out: Promotion of angiogenesis (%); for activity at 3 µM: Compound Conc. = 3 μM; for activity at 0.3 µM: Compound Conc. = 0.3 μM
Procedure: Using an angiogenesis test kit containing a mixture of human vascular endothelial cells and fibroblasts [KZ-1000; Kurabo], the ability of test compounds to promote angiogenesis was evaluated. Each test compound was added on days 1, 4, and 7 of the incubation period. On day 9, cells were immunostained with CD31 and photographed. Control cells were cultured under the same conditions, only without the addition of a test compound, and photographed.
The lumen length of the blood vessel was quantified from the obtained images using an angiogenesis-quantification software. The ability (%) of each test compound to promote angiogenesis was calculated from the following equation: The ability to promote angiogenesis (%)=[(measurement with a compound of interest)/(measurement of control)]×100
Example Compounds shown in Table 26 were used as test compounds.
Since bFGF gives a measurement of about 120 in this test, 120 is used as the threshold to determine whether a given compound has the ability to promote angiogenesis.

hippocampal neurons = test: Test Example 1: ability to promote axonal outgrowth; type: cell-based, Wistar rats; details: Hippocampal neuron, 216 h; Compound Conc. = 3 μM; % of control; rat hippocampal neurons, day 9; read-out: Promotion of axonal outgrowth (%)
Procedure: According to the method of M. P. Mattson [M. P. Mattson, Brain Res. Rev., 13, 179, (1988)], the hippocampal region was isolated from 18-day embryos of female Wistar rats and the neurons were dispersed using the papain dissociation system. Hippocampal neuron were suspended in 5% Nu-serum+B27 supplement+Neurobasal medium at 5×10^4 cells/well/2 mL. 2 mL of the cell suspension were inoculated on a poly-D-lysine-coated 36φ dish and the neuron were incubated at 37° C. in a 5% CO2 incubator.
On day 3 of the incubation period, 1 mL of the culture medium was replaced with 1 mL of 5% Nu-serum+B27 supplement+Neurobasal medium containing 2 mM AraC. Each test compound was added to the culture on day 3 and day 7 of the incubation period. On day 9, cells were fixed in a 4% paraformaldehyde solution. The nerve axons of the fixed cells were stained with the Rabbit anti-growth-associated protein-43 polyclonal antibody and the stained cells were quantified using Kurabo neuron outgrowth-quantication software.
The ability (%) of each test compound to promote axonal outgrowth was calculated from the following equation: The ability to promote axonal outgrowth (%)=[(measurement with a compound of interest)/(measurement of control)]×100
Example Compounds shown in Table 25 were used as test compounds and were each added at concentrations of 3 μM and 0.3 μM.
Since bFGF gives a measurement of about 120 in this test, 120 is used as the threshold to determine whether a given compound has the ability to promote axonal outgrowth

[2] = test system: critical limb ischemia model (left femoral artery excised); test: Test Example 4: lower limb ischemia (critical limb ischemia) model in mice; type: in vivo, Balb/c mice; details: oral once daily 0.1 or 1.0 mg/kg for 10 days from femoral artery excision, vs Vehicle
Procedure: According to the method of Ichiro Masaki [Circ Res. 90; 966-973 (2002)], the left femoral artery of Balb/c mice was excised to establish a model of critical limb ischemia (n=29 to 30).
Test compounds used were Example Compounds 65, 92, 114, 130, 135 and 136, each of which was orally administered once daily at a dose of 0.1 mg/kg or 1.0 mg/kg for 10 days starting from the day of femoral artery excision.
The results are shown in FIGS. 1 to 6 in which FIGS. 1, 2, 3, 4, 5 and 6 show the results of Example Compounds 65, 92, 114, 130, 135 and 136, respectively.
In the figures, a thick solid line indicates a Vehicle group, a thin dotted line indicates a group administered 0.1 mg/kg/day of each compound, and a thin solid line indicates a group administered 1.0 mg/kg/day of each compound.
*: P<0.05, **: P<0.01, ***: P<0.001 vs Vehicle by Wilcoxon's test.

spinal cord neurons = test: Test Example 3: ability to promote the neurite outgrowth of spinal cord neurons; type: cell-based, Wistar rats; details: Compound Conc. = 0.1 μM; % of control, day 3
Procedure: According to the method of Martin G. Hanson Jr. [J. Neurosci., 1998 Sep. 15; 18(18): 7361-71], the spinal cord region was isolated from 15-day embryos of female Wistar rats and the cells were dispersed using the papain dissociation system. Neurons were collected using 6.8% Metrizamide density gradient and were suspended in 2% FBS+Leibovitz's −15 medium so that the density of the cells will be 2×10^3 cells/well/200 μL. 200 μL of the cell suspension was inoculated on a poly-D-lysine/laminin-coated 96 well plate and the plate was incubated in an incubator at 37° C. Test compounds were added 1 hour after seeding of cells.
On day 3 of the incubation period, neurons were stained with Calcein-AM and the lengths of neurites were determined using IN Cell Analyzer (GE Healthcare Bioscience).
The ability (%) of each test compound to promote neurite outgrowth was calculated from the following equation: The ability to promote neurite outgrowth (%)=[(measurement with a compound of interest)/(measurement of control)]×100
Example Compounds 65, 71, 74, 92, 130 and 135 were used as test compounds and were each added at a concentration of 0.1 μM.
The results are shown in Table 27. bFGF gives a measurement of about 130 in this test.

[3] = test system: microsphere (micro-embolism) model; test: Test Example 6: rat microsphere (micro-embolism) model; type: in vivo, Crl:CD(SD) rats; details: rats, oral 1.0 mg/kg once daily for 10 days (Compound 65 also 0.1 mg/kg); 2 weeks after surgery
From the text: According to the method of Ichiro Date et al. [Journal of Neuroscience Research 78; 442-453 (2004)], 8-week-old male Crl:CD(SD) rats were used. Animals were anesthetized with halothane and midline incision was made. Right carotid artery was separated and a thread was looped around the common carotid artery and external carotid artery. The pterygopalatine artery was temporarily clipped with an aneurysm clip. The blood flow through the common carotid artery and external carotid artery was temporarily interrupted and 0.1 mL of a microsphere suspension composed of microspheres dispersed in a 30% sucrose solution (1800 microspheres/0.1 mL) was injected into the common carotid artery. After injection of the suspension, the puncture of the injection needle was filled with instant glue while the blood flow was interrupted. The blood flow was then restored and the surgical wound was sutured. Neurological symptoms were observed the day following the surgery. The animals were assigned to each treated group at random with respect to the measurements of neurological symptoms, the decrease in body weight from the previous day, and the body weight on that day.
The test compounds used were Example Compound 65, 108, 130, 135 and 137, each of which was administered at a dose of 1.0 mg/kg. Example Compound 65 was administered also at a dose of 0.1 mg/kg. Each compound was orally administered once daily for 10 days starting from the following day of the surgery. Coordinated motor functions were measured 5 times on an accelerated rota-rod (4 to 40 rpm/5 min) 2 weeks after the surgery.
Specifically, FIGS. 11 to 15 show the effect of different compounds 2 weeks after the microsphere injection (rota-rod test standard parameter). The figures show the results of rota-rod tests 2 weeks after the ischemic event in which each compound was orally administered at 1.0 mg/kg once daily for 10 days (Example Compound 65 was administered at 0.1 mg/kg or 1.0 mg/kg). What is shown in the figures is the total time of the 5 measurements on rota-rod as a standard parameter.
***: p<0.0001, Dunnett's multiple range test vs. Vehicle.

chemokine receptor CCR3 = molecular target: T1, chemokine receptor CCR3 (Homo sapiens, UniProt P51677); test: Affinity to chemokine receptor CCR3; type: binding; details: at a concentration of 10 μM
T1 sequence (P51677 1-355): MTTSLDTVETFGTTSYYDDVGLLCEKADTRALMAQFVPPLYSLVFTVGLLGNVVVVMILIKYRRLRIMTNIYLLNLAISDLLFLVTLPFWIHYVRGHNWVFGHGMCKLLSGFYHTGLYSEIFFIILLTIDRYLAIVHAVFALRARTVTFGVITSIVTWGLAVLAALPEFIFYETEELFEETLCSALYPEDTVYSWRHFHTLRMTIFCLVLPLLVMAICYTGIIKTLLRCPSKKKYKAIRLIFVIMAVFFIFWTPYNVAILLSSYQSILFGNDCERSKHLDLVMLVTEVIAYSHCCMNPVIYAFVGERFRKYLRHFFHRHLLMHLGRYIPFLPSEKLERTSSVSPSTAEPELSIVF
From the text: Although the compounds of the present invention are novel compounds, compounds having a partly similar skeleton are described, for example, in Published Japanese Translation of PCT International Application No. 2003-507456, WO 01/79170 and WO 00/23076.

SMILES	activity at 3 µM [1]	activity at 3 µM (hippocampal neurons)	survival rate of lower limb [2]	Promotion of spinal cord neurite outgrowth (%) (spinal cord neurons)	coordinated motor functions, total time of 5 measurements on rota-rod [3]	activity at 0.3 µM [1]	affinity to chemokine receptor CCR3 (chemokine receptor CCR3)
Cc1nc(OCC(=O)N(C)C2CCN(C(=O)C3CC3)CC2)nc(C)c1N [Compound 92, 2-(5-amino-4,6-dimethylpyrimidine-2-yloxy)-N-(1-(cyclopropanecarbonyl)piperidine-4-yl)-N-methylacetamide]	153%	127%	increased survival rate	120%			
Cc1cnc(N)nc1NCC(=O)N(C)C1CCN(CC2CC2)CC1 [Compound 108, 2-(2-amino-5-methylpyrimidine-4-ylamino)-N-(1-(cyclopropylmethyl)piperidine-4-yl)-N-methylacetamide]		122%			highly effective in ameliorating ischemic cerebral infarction	114%	
CN(C(=O)Cn1cc(F)c(N)nc1=O)C1CCN(Cc2ccccc2)CC1 [Compound 114, 2-(4-amino-5-fluoro-2-oxopyrimidine-1(2H)-yl)-N-(1-benzylpiperidine-4-yl)-N-methylacetamide]	125%	183%	increased survival rate				
CNc1nccnc1OCC(=O)N(C)C1CCN(Cc2ccccc2)CC1.Cl [Compound 130, N-(1-benzylpiperidine-4-yl)-N-methyl-2-(3-(methylamino)pyrazine-2-yloxy)acetamide hydrochloride]		143%	increased survival rate	128%	highly effective in ameliorating ischemic cerebral infarction	118%	3.5%
CN(C(=O)COc1ccc(Cl)nn1)C1CCN(C(=O)C2CC2)CC1 [Compound 135, 2-(6-chloropyridazine-3-yloxy)-N-(1-(cyclopropanecarbonyl)piperidine-4-yl)-N-methylacetamide]	140%	131%	increased survival rate	121%	highly effective in ameliorating ischemic cerebral infarction		22%
CN(C)c1ccc(OCC(=O)N(C)C2CCN(C(=O)C3CC3)CC2)nn1 [Compound 136, N-(1-(cyclopropanecarbonyl)piperidine-4-yl)-2-(6-(dimethylamino)pyridazine-3-yloxy)-N-methylacetamide]		133%	increased survival rate			110%	
CN(C(=O)COc1ccc(Cl)nn1)C1CCN(Cc2ccccc2)CC1 [Compound 137, N-(1-benzylpiperidine-4-yl)-2-(6-chloropyridazine-3-yloxy)-N-methylacetamide]					highly effective in ameliorating ischemic cerebral infarction		
